Data set [1] concerns the target T1, S1P1 (Homo sapiens, UniProt P21453). The experiment in a line: 35S-GTPγS binding assay, S1P1 membranes. The data set is classed as biochemical. To be noted: membranes from CHO cells expressing S1P1; read-out: S1P1/GTPG EC50. As to the method: (§1) Membranes Preparation: Membranes were prepared from CHO cells expressing S1P1 or S1P3 for use in ligand and 35S-GTPγS binding studies. Cells were suspended in 50 mM TRIS, pH 7.4, 2 mM EDTA, 250 mM Sucrose (buffer A) and 1× Complete protease inhibitor cocktail (Roche), and disrupted at 4° C. by N2 decompression using a cell disruption bomb (Parr Instrument). Following centrifugation at 1000 RPM for 10 min at 4° C., the supernatant was diluted (2×) in buffer A and centrifuged again at 19000 RPM for 75 min at 4° C. The pellet was then suspended in 10 mM HEPES, pH 7.4, 1 mM EDTA, 250 mM Sucrose (Buffer B), and 1× Complete EDTA-free protease inhibitor cocktail and homogenized using a potter. Membranes were flash frozen in liquid N2 and stored at −80° C.
(§2) Measurements of 35S-GTPγS Binding: Membranes (1 to 10 μg protein) prepared as described above, were incubated in 96-well Scintiplates (PerkinElmer) with test compounds diluted in DMSO, in 140 μl of 20 mM HEPES, pH 7.4, 10 mM MgCl2, 2 μg/well Saponin, 0.2% fatty acid free BSA (Assay buffer), 125 mM NaCl and 1.5 μM GDP. The assay was initiated with the addition of 60 μl of 1.5 nM [35S]-GTPγS (1100 Ci/mmol; GE Healthcare) in assay buffer. After 60 min incubation at 30° C. on a shaker, plates were centrifuged for 10 min at 2000 RPM. Supernatant was discarded and membrane bound radioactivity was measured on a PerkinElmer 1450 MicroBeta counter. Triplicate samples were averaged and expressed as % response relative to S1P activation in absence of compound (n=2).
The “potency” or the “activity” of the compounds is determined by the EC50 values as evaluated in the above described 35S-GTPγS binding assay.

Data set [2] concerns the target T2, S1P3 (Homo sapiens, UniProt Q99500). The experiment in a line: 35S-GTPγS binding assay, S1P3 membranes. The data set is classed as biochemical. To be noted: membranes from CHO cells expressing S1P3; read-out: S1P3/GTPG EC50. How it is done: as §1, §2
On the technique in general: Binding of GTPγS marks nucleotide exchange on a G protein.

The target of data set [3] is T1, S1P1. Description: Receptor binding assay, [33P]sphingosine 1-phosphate competition, S1P1. Put shortly: (§3)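 SPA competition binding on CHO-cell membranes with 30 pM (S1P1) or 15 pM (S1P3) [33P]S1P in 50 mM HEPES pH 7.5, 5 mM MgCl2, 100 mM NaCl, 0.4% fatty acid-free BSA, 60 min at RT. Percent inhibition normalised to total binding and to non-specific binding (1000-fold unlabelled S1P), triplicates averaged.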

Data set [4] has as its target T2, S1P3. Description: Receptor binding assay, [33P]sphingosine 1-phosphate competition, S1P3. The method in brief:
as §3

The target of data set [5] is T3, human S1P1 Receptor fused to the green fluorescent protein (EGFP) (Homo sapiens, UniProt P21453).
T3 construct: host or cells: U2OS (human bone osteosarcoma epithelial cells), CMV promoter, geneticin selection
Description: Internalization of S1P1 in S1P1-U2OS cells by cell imaging analysis. The data set is classed as cell-based. To be noted: 1 hour incubation, 384-well. Put shortly:
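Human U2OS osteosarcoma cells stably expressed human S1P1-EGFP. After 2 h serum starvation in 0.1% fatty-acid-free BSA medium, cells were treated with compounds for 1 h at 37 °C. Cells were then fixed and Hoechst-stained, and internalization was imaged as spots (receptor) per nucleus.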

[6] abbreviates: 96 well-plate, read-out: S1P1 binding IC50 (M) (96 well-plate).
Where [7] appears, read: 384 well-plate, read-out: S1P1 binding IC50 (M) (384 well-plate).
Setting [8] is: 96 well-plate, read-out: S1P3 binding IC50 (M) (96 well-plate).
The mark [9] stands for this setting: 384 well-plate, read-out: S1P3 binding IC50 (M) (384 well-plate).

The structures appear in SMILES notation. Counter-ions that a name gives are not always drawn. Like-named read-outs stand apart in the source and are kept apart here.

T1 sequence (P21453 whole entry, species assumed): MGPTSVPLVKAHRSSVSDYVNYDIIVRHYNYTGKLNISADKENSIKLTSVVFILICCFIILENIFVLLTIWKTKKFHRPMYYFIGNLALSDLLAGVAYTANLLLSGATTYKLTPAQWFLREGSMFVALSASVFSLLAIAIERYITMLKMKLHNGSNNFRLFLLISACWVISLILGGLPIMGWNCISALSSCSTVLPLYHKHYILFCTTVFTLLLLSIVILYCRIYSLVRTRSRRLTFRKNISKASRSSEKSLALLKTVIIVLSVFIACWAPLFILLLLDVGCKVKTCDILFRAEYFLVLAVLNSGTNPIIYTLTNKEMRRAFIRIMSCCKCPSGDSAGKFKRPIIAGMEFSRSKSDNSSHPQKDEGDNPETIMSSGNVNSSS
T3 sequence (P21453 with tags, fused parts or gaps): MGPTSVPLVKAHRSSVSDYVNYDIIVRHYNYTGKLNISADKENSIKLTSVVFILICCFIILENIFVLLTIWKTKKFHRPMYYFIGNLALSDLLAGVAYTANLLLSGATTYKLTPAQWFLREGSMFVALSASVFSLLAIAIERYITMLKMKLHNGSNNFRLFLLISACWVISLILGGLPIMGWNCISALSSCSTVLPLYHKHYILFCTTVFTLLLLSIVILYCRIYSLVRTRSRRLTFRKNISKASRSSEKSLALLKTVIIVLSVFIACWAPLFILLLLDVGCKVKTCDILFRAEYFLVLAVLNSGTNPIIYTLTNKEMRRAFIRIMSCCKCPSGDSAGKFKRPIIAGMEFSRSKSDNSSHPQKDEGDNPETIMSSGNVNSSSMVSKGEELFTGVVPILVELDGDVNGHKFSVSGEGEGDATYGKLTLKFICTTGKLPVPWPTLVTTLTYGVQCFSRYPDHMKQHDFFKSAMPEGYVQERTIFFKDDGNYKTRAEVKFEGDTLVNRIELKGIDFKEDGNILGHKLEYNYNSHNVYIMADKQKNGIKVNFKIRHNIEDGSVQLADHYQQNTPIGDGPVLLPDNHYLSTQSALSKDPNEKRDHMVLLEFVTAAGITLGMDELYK
T2 sequence (Q99500 whole entry, species assumed): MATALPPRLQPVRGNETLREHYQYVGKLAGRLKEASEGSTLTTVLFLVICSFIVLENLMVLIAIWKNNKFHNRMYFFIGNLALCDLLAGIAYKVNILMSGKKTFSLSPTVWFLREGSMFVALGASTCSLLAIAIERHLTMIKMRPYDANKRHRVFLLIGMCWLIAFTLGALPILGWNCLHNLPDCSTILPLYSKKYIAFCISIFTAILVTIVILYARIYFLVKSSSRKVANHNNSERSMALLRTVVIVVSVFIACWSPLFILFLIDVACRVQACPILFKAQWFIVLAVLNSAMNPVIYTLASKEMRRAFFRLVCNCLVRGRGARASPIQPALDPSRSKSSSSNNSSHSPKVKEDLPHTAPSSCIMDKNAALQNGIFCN

As a reminder, the IC50 is the point on the concentration scale where inhibition reaches its midpoint. Take `COCc1cc(-c2nc(-c3ccc(N)nc3)no2)ccc1-c1ccccc1C` [Example 4, 5-{5-[2-(methoxymethyl)-2′-methylbiphenyl-4-yl]-1,2,4-oxadiazol-3-yl}pyridin-2-amine, hydrochloride salt]: the results for the EC50 (at S1P1 [1]; on S1P3 [2]; in data set [5]) were 4.11 nM, 2690 nM and 32 nM, respectively. Also, the IC50 at S1P1 [3] (setting [6]) stood at 1.75e-09 M; at S1P1 [3] (setting [7]), 3.2e-08 M; at S1P3 [4] (setting [8]) it was 6.07e-06 M; at S1P3 [4] (setting [9]) it was 7.85e-06 M.

The melting point is the temperature, or range, at which the solid turns liquid. Turning to `COCc1cc(-c2nc(-c3cnc(N)c(C)c3)no2)ccc1-c1ccccc1Cl` [Example 76, 5-{5-[2′-chloro-2-(methoxymethyl)biphenyl-4-yl]-1,2,4-oxadiazol-3-yl}-3-methylpyridin-2-amine], the melting point fell in the range of 143 to 145 °C. The IC50 at S1P1 [3] (setting [7]) came out at 2.16e-08 M. The compound further came in with an EC50 in data set [5] of 37.4 nM.

In the case of `COCc1cc(-c2nc(-c3cnc(NCCC(=O)O)c(Cl)c3)no2)ccc1-c1ccccc1C` [Example 37, N-(3-chloro-5-{5-[2-(methoxymethyl)-2′-methylbiphenyl-4-yl]-1,2,4-oxadiazol-3-yl}pyridin-2-yl)-beta-alanine, hydrochloride salt], the EC50 was 2.37 nM at S1P1 [1], 2110 nM on S1P3 [2] and 19.8 nM in data set [5]. Besides, the IC50 on S1P1 [3] (setting [6]) was found to be 1.07e-09 M; at S1P1 [3] (setting [7]), 1.06e-08 M; on S1P3 [4] (setting [8]), 2.86e-06 M; at S1P3 [4] (setting [9]), 1.5e-05 M.

In turn, `COCc1cc(-c2nc(-c3cnc(N)c(Cl)c3)no2)ccc1-c1ccccc1Cl` [Example 47, 3-chloro-5-{5-[2′-chloro-2-(methoxymethyl)biphenyl-4-yl]-1,2,4-oxadiazol-3-yl}pyridin-2-amine] came in with a melting point of 182 to 184 °C. For the same compound, the IC50 on S1P1 [3] (setting [6]) worked out at 6.02e-09 M. Moreover, the IC50 on S1P3 [4] (setting [8]) stood at 2e-05 M. The same compound gave an EC50 in data set [5] of 26.8 nM.

`COCc1cc(-c2nc(-c3cnc(N)c(C)c3)no2)ccc1-c1ccccc1F` [Example 79, 5-{5-[2′-fluoro-2-(methoxymethyl)biphenyl-4-yl]-1,2,4-oxadiazol-3-yl}-3-methylpyridin-2-amine] displayed a melting point of 162 to 164 °C. At S1P1 [3] (setting [7]), the IC50 is 2.15e-08 M. The same compound returned an EC50 in data set [5] of 58.7 nM.

On to `COCc1cc(-c2nc(-c3ccnc(N)c3)no2)ccc1-c1ccccc1C` [Example 15, 4-{5-[2-(methoxymethyl)-2′-methylbiphenyl-4-yl]-1,2,4-oxadiazol-3-yl}pyridin-2-amine, hydrochloride salt], for which the results for the EC50 (at S1P1 [1]; on S1P3 [2]; in data set [5]) were 3.52 nM, 414 nM and 6 nM, respectively. Besides, the IC50 on S1P1 [3] (setting [6]) was 1.04e-08 M.

For the compound `COCc1cc(-c2nc(-c3cnc(N)c(Cl)c3)no2)ccc1-c1ccccc1C` [Example 14, 3-chloro-5-{5-[2-(methoxymethyl)-2′-methylbiphenyl-4-yl]-1,2,4-oxadiazol-3-yl}pyridin-2-amine], the EC50 was determined as 5.87 nM at S1P1 [1], 1460 nM at S1P3 [2] and 44.9 nM in data set [5]. For the same compound, the 50% inhibitory concentration (IC50) was determined as 1.89e-08 M at S1P1 [3] (setting [6]) and 1.65e-05 M on S1P3 [4] (setting [8]).

`CCOc1cc(-c2nc(-c3cnc(N)c(C)c3)no2)ccc1-c1ccccc1C(F)(F)F` [Example 77, 5-{5-[2-ethoxy-2′-(trifluoromethyl)biphenyl-4-yl]-1,2,4-oxadiazol-3-yl}-3-methylpyridin-2-amine] came in with a melting point of 163 to 165 °C. The IC50 at S1P1 [3] (setting [7]) was found to be 1.49e-08 M. The same compound displayed an EC50 in data set [5] of 73.5 nM.

The record behind these values is patent US20110306636A1, “OXAZOLE PYRIDINE DERIVATIVES USEFUL AS S1P1 RECEPTOR AGONISTS” (Merck Serono SA, priority 2009, published 2011).
